Structures are written as SMILES.

In general, IC50 refers to the midpoint of a concentration-inhibition curve. Read a low IC50 as inhibition by little substance.

The subject of the assay is HSV-1. Description: HSV-1 replication in infected Vero 76 cells, DNA hybridization capture assay. The class given is cell-based, herpes simplex virus 1. Conditions: Human alphaherpesvirus 1; HSV-1 infected Vero 76 cells (MOI=0.001), 40-48 hours incubation, HSV DNA detected by hybridization/chemiluminescence. How it is done:
Vero 76 cells were maintained in MEM with Earle's salts, L-glutamine, 8% FBS (Hyclone, A-1111-L) and 100 units/mL Penicillin-100 μg/mL Streptomycin. For assay conditions, FBS was reduced to 2%. Cells are seeded into 96-well tissue culture plates at a density of 5×10^4 cells/well after being incubated for 45 min at 37° C. in the presence of HSV-1 or HSV-2 (MOI=0.001). Test compounds are added to the wells and the plates are incubated at 37° C. for 40-48 hours. Cell lysates are prepared as follows: media was removed and replaced with 150 μL/well 0.2 N NaOH with 1% igepal CA 630 or NP-40. Plates were incubated up to 14 days at room temperature in a humidified chamber to prevent evaporation.
For the detection probe, a gel-purified, digoxigenin-labeled, 710-bp PCR fragment of the HSV UL-15 sequence was utilized. PCR conditions included 0.5 μM primers, 180 μM dTTP, 20 μM dUTP-digoxigenin (Boehringer Mannheim 1558706), 200 μM each of dATP, dCTP, and dGTP, 1× PCR Buffer II (Perkin Elmer), 2.5 mM MgCl2, 0.025 units/μL of AmpliTaq Gold polymerase (Perkin Elmer), and 5 ng of gel-purified HSV DNA per 100 μL Extension conditions were 10 min at 95° C., followed by 30 cycles of 95° C. for 1 min, 55° C. for 30 sec, and 72° C. for 2 min. The amplification was completed with a 10-min incubation at 72° C. Primers were selected to amplify a 728 bp probe spanning a section of the HSV1 UL15 open reading frame (nucleotides 249-977). Single-stranded transcripts were purified with Promega M13 Wizard kits. The final product was mixed 1:1 with a mixture of 6 M GuSCN, 100 mM EDTA and 200 μg/mL herring sperm DNA and stored at 4° C.
The capture DNA plasmid (HSV UL13 region in pUC) was linearized by cutting with Xba I, denatured for 15 min at 95° C. and diluted immediately into Reacti-Bind DNA Coating Solution (Pierce, 17250, diluted 1:1 with TE buffer, pH 8) at 1 ng/μL. 75 μL/well were added to Corning (#3922 or 9690) white 96-well plates and incubated at room temperature for at least 4 hrs before washing twice with 300 μL/well 0.2×SSC/0.05% Tween-20 (SSC/T buffer). The plates were then incubated overnight at room temperature with 150 μL/well 0.2 N NaOH, 1% IGEPAL and 10 μg/mL herring sperm DNA.
Twenty-seven (27) μL of cell lysate was combined with 45 μL of hybridization solution (final concentration: 3M GuSCN, 50 mM EDTA, 100 μg/ml salmon sperm DNA, 5× Denhardt's solution, 0.25× APE, and 5 ng of the digoxigenin-labeled detection probe). APE is 1.5 M NH4-acetate, 0.15 M NH4H2 phosphate, and 5 mM EDTA adjusted to pH 6.0. Mineral oil (50 μL) was added to prevent evaporation. The hybridization plates were incubated at 95° C. for 10 minutes to denature the DNA, then incubated at 42° C. overnight. The wells were washed 6× with 300 μL/well SSC/T buffer then incubated with 75 μL/well anti-digoxigenin-HRP-conjugated antibody (Boehringer Mannheim 1207733, 1:5000 in TE) for 30 min at room temperature. The wells were washed 6× with 300 μL/well with PBS/0.05% Tween-20 before 75 μL/well SuperSignal LBA substrate (Pierce) was added. The plates were incubated at room temperature for 30 minutes and chemiluminescence was measured in a Wallac Victor reader.
The following results were obtained for HSV-1.
Regarding `Fc1cc(-c2c(-c3ccccc3)nn3c(N4CCCC4)ccnc23)ccn1` [Example 1, 3-(2-Fluoropyridin-4-yl)-2-phenyl-7-pyrrolidin-1-ylpyrazolo[1,5-α]pyrimidine], the IC50 was 28 µM. Regarding `c1ccc(-c2nn3c(N4CCCC4)ccnc3c2-c2ccnc(NC3CCCC3)c2)cc1` [Example 2, N-Cyclopentyl-4(2-phenyl-7-pyrrolidin-1-ylpyrazolo[1,5-α]pyrimidin-3-yl)pyridin-2-amine], the IC50 amounted to 0.8 µM. Compound `COc1ccc(-c2nn3c(NC4CCCC4)ccnc3c2-c2ccnc(NC3CCCC3)c2)cc1` [Example 4, N-Cyclopentyl-3-[2-(cyclopentylamino)-4-pyridinyl]-2-(4-methoxyphenyl)pyrazolo[1,5-α]pyrimidin-7-amine] returned a 50% inhibitory concentration (IC50) of 0.6 µM. Compound `COc1ccc(-c2nn3c(NC4CCCC4)ccnc3c2-c2ccnc(NC3CCCC3)n2)cc1` [Example 6, N-Cyclopentyl-3-[2-(cyclopentylamino)pyrimidin-4-yl]-2-(4-methoxyphenyl)pyrazolo[1,5-α]pyrimidin-7-amine] gave an IC50 of 2.4 µM. The value for `Fc1ccc(-c2nn3c(NC4CCCC4)ccnc3c2-c2ccnc(NC3CCCC3)c2)cc1` [Example 5, N-Cyclopentyl-3-[2-(cyclopentylamino)-4-pyridinyl]-2-(4-fluorophenyl)pyrazolo[1,5-α]pyrimidin-7-amine] was 1.2 µM; that for `c1ccc(-c2nn3c(NC4CCCC4)ccnc3c2-c2ccnc(NC3CCCC3)c2)cc1` [Example 3, N-Cyclopentyl-3-[2-(cyclopentylamino)pyridin-4-yl]-2-phenylpyrazolo[1,5-α]pyrimidin-7-amine] was 0.3 µM.

For the origin of these results see US7304068B2, “Substituted pyrazolo [1,5-A] pyrimidinyls and pharmaceutical uses therefore” (SmithKline Beecham Corporation, priority 2002, dated 2007).
